# Measured values reported in patent US20160115540A1, “PRODRUGS AND DRUGS” (Biogen MA Inc., priority 2013, published 2016).
# Counter-ions that a name gives are not always drawn.
# Test system: kidney
# Test: Transcriptional profiling on Affymetrix GeneChips, single dose, naïve mice: kidney
# Type: in vivo, C57BL/6 mice
# Conditions: 100 DMF-vs-Veh, 2 h
# Description: Treated mice were sacrificed at 2, 7, or 12 hours. Tissues (liver, spleen, kidney, jejunum, cortex, hippocampus, striatum and whole blood) were collected and analyzed by transcriptional profiling on mouse Affymetrix GeneChips.
# Tissues (liver, spleen, kidney, jejunum, cortex, hippocampus, striatum and whole blood) were collected and analyzed by transcriptional profiling on mouse Affymetrix GeneChips.
# Animals were exposed to CO2 and whole blood collected via cardiac puncture. Two 100 μl aliquots of whole blood were collected in 1.5 mL microcentrifuge tubes and snap frozen in liquid nitrogen. Peripheral (liver, spleen, kidney and jejunum) and CNS brain (cerebellum, hippocampus, striatum and cortex) tissues were harvested and snap frozen in liquid nitrogen, with special care taken to collect tissues of similar size and from the same location. All samples were stored at −80° C. until RNA extraction was conducted.
# For RNA preparation, frozen tissues were placed in 2 mL RNAse-free 96-well blocks with 1.5 mL QIAzol Lysis Reagent (QIAgen) and a 3.2 mm stainless steel bead (BioSpec Products, Bartlesville, Okla.). Tissues were disrupted for four cycles of 45 seconds in a Mini-Beadbeater (Biospec Products). RNA was extracted in chloroform and the aqueous phase was mixed with an equal volume of 70% ethanol. Extracted RNA was applied to RNeasy 96 plates and purified by the spin method according to the manufacturer's protocol (RNeasy 96 Universal Tissue Protocol, QIAgen, Hilden Germany).
# Automated sample amplifications and biotin labelings were carried out using the NuGEN Ovation RNA Amplification system V2 (Cat #3100), Ovation WB reagent (Cat #1300) and Encore Biotin module (Cat #4200) (NuGEN Technologies, Inc, San Carlos, Calif.) according to manufacturer's recommendations using an Arrayplex automated liquid handler (Beckman Coulter, Indianapolis, Ind.). Two micrograms of biotin labeled sscDNA probe were hybridized to Affymetrix GeneChip Affymetrix HT_MG-430_PM plate arrays with modified conditions as described in Allaire et al. Washing and staining of the hybridized arrays were completed as described in the GeneChip Expression analysis technical manual for HT plate arrays using the Genechip® Array Station (Affymetrix, Santa Clara, Calif.) with modifications as described in Allaire et al. The processed GeneChip® plate arrays were scanned using GeneTitan scanner (Affymetrix, Santa Clara, Calif.).
# Affymetrix scans were subject to quality control (QC) measures. These tests included a visual inspection of the distribution of raw signal intensities and an assessment of RNA degradation, relative log expression (RLE), and normalized unsealed standard error (NUSE). All sample scans that passed these QC metrics were included in the analysis.
# All CEL files were subjected to GC-content-based Robust Multi-array Average (GCRMA) normalization (version 2.20.0) (Irizarry R A, et al. Nucleic Acids Res 2003; 31:e15; Li C, et al. Genome Biol 2001; 2:[…]0032). Expression levels were log (base 2) transformed.
# All calculations and analyses were carried out using R (version 2.11.1) and Bioconductor computational tools (Gentleman R. Springer Science+Business Media 2005).
compound,measurement,value
"COC(=O)/C=C/C(=O)OC [DMF, dimethyl fumarate]",FC 1200016B10Rik 1428654_PM_at,1.59
same,FC 1200016B10Rik 1452859_PM_at,1.62
same,FC 1438879_PM_at,−1.61
same,FC 1439292_PM_at,2.14
same,FC 1440076_PM_at,3.71
same,FC 1440084_PM_at,−1.57
same,FC 1440304_PM_at,−1.68
same,FC 1440457_PM_at,1.76
same,FC 1440660_PM_at,−1.56
same,FC 1441155_PM_at,1.51
same,FC 1441360_PM_at,1.55
same,FC 1441413_PM_at,1.88
same,FC 1441455_PM_at,1.58
same,FC 1441482_PM_at,−2.08
same,FC 1441484_PM_at,−1.79
same,FC 1441518_PM_at,−1.67
same,FC 1441794_PM_at,−1.72
same,FC 1442422_PM_at,1.74
same,FC 1442483_PM_at,−1.59
same,FC 1442504_PM_at,−1.70
same,FC 1442506_PM_at,5.76
same,FC 1442671_PM_at,1.55
same,FC 1442725_PM_at,−1.53
same,FC 1442928_PM_at,1.66
same,FC 1443100_PM_at,−1.63
same,FC 1443109_PM_at,1.69
same,FC 1443289_PM_at,−1.65
same,FC 1443335_PM_at,−1.78
same,FC 1443546_PM_at,1.74
same,FC 1443566_PM_at,−1.76
same,FC 1443673_PM_x_at,2.06
same,FC 1444021_PM_at,3.24
same,FC 1444057_PM_at,1.75
same,FC 1444111_PM_at,−1.67
same,FC 1444212_PM_at,1.57
same,FC 1444227_PM_at,1.56
same,FC 1444265_PM_at,1.93
same,FC 1445290_PM_at,−1.52
same,FC 1445349_PM_at,−1.70
same,FC 1445600_PM_at,−1.65
same,FC 1445664_PM_at,−1.60
same,FC 1446075_PM_at,−1.62
same,FC 1446172_PM_at,1.85
same,FC 1446621_PM_at,1.74
same,FC 1446921_PM_at,1.58
same,FC 1447172_PM_at,−1.61
same,FC 1447396_PM_at,−1.90
same,FC 1447411_PM_at,4.68
same,FC 1700012D14Rik 1438880_PM_at,−1.55
same,FC 1810013L24Rik 1431018_PM_at,1.50
same,FC 2200002K05Rik 1428400_PM_at,−1.79
same,FC 2210403K04Rik 1428562_PM_at,1.86
same,FC 2210416J07Rik 1432665_PM_at,−1.87
same,FC 2410089E03Rik 1443422_PM_at,−1.72
same,FC 2810029C07Rik 1428686_PM_at,−1.58
same,FC 2900011L18Rik 1432757_PM_at,1.62
same,FC 4833418N02Rik 1430686_PM_at,−1.51
same,FC 4921509J17Rik 1430244_PM_at,1.60
same,FC 4932416J16Rik 1430783_PM_at,−1.67
same,FC 4933427G17Rik 1431905_PM_s_at,−1.65
same,FC 5830487K18Rik 1432625_PM_at,−1.90
same,FC 6430571L13Rik 1439669_PM_at,−1.85
same,FC 9130221J17Rik (1443159_PM_at),9.22
same,FC 9530086O07Rik 1430392_PM_at,−1.52
same,FC A130012E19Rik 1440671_PM_at,1.56
same,FC AI845619 1442726_PM_s_at,5.44
same,FC Aars 1451083_PM_s_at,1.53
same,FC Abce1 1442071_PM_at,1.53
same,FC Acvr2b 1419140_PM_at,−1.51
same,FC Adamts1 1450716_PM_at,1.86
same,FC Adamts15 1427056_PM_at,−2.26
same,FC Ahsa2 1435160_PM_at,1.64
same,FC Aldh2 1437410_PM_at,1.69
same,FC Alkbh1 1434660_PM_at,1.53
same,FC Anxa7 1438764_PM_at,1.88
same,FC Aox1 (1419435_PM_at),2.46
same,FC Arl5b 1437884_PM_at,1.93
same,FC Arpc5l 1441190_PM_at,1.70
same,FC Asns 1433966_PM_x_at,2.54
same,FC Asns 1451095_PM_at,3.03
same,FC Atf4 1438992_PM_x_at,1.77
same,FC Atf4 1448135_PM_at,2.12
same,FC Atp1a2 1452308_PM_a_at,1.84
same,FC BC005512 /// F630007L15Rik /// Gm6958 1426936_PM_at,−1.67
same,FC BC005512 /// F630007L15Rik /// Gm6958 1435628_PM_x_at,−1.72
same,FC BC026585 1445857_PM_at,−1.51
same,FC BC031353 1439293_PM_at,−1.84
same,FC Bach1 1440831_PM_at,1.90
same,FC Bach1 1449311_PM_at,2.55
same,FC Bag3 1422452_PM_at,2.03
same,FC Baiap2 1425656_PM_a_at,1.51
same,FC Baz1a 1433599_PM_at,2.51
same,FC Baz1a /// LOC100505185 1447930_PM_at,2.56
same,FC Bcl11b 1438784_PM_at,−1.52
same,FC Brd2 1423502_PM_at,1.83
same,FC Brd2 1437210_PM_a_at,2.07
same,FC Btbd10 1438578_PM_a_at,1.60
same,FC C730027H18Rik 1442546_PM_at,−1.57
same,FC Cars 1452394_PM_at,1.63
same,FC Cbr3 (1427912_PM_at),3.04
same,FC Ccdc30 1430593_PM_at,−2.01
same,FC Ccdc117 1452218_PM_at,1.54
same,FC Cenpe 1435005_PM_at,−2.20
same,FC Chac1 1451382_PM_at,31.00
same,FC Chd1 1420990_PM_at,1.76
same,FC Chd1 1450077_PM_at,1.67
same,FC Cltc 1439094_PM_at,2.07
same,FC Cyp27b1 1427372_PM_at,−3.22
same,FC Cyr61 1438133_PM_a_at,2.64
same,FC D16Ertd778e 1445089_PM_at,−2.60
same,FC Dcbld1 1418966_PM_a_at,1.78
same,FC Ddit3 1443897_PM_at,3.97
same,FC Dnaja4 1434196_PM_at,1.63
same,FC Dnajb4 1431734_PM_a_at,2.15
same,FC Dnajb4 1451177_PM_at,2.48
same,FC Dusp4 1428834_PM_at,2.09
same,FC Dusp5 1437199_PM_at,3.68
same,FC E130306D19Rik 1436725_PM_at,−1.64
same,FC Eid3 1429350_PM_at,1.84
same,FC Eif2c3 1435904_PM_at,1.53
same,FC Esd (1441604_PM_at),1.62
same,FC Fam126a 1450724_PM_at,1.70
same,FC Fbxo30 1436550_PM_at,1.81
same,FC Fgd3 1433398_PM_at,1.66
same,FC Fgf1 1441042_PM_at,−2.91
same,FC Fgfbp1 1419086_PM_at,1.81
same,FC Fn3k 1442436_PM_at,−1.60
same,FC Fras1 1440765_PM_at,−1.73
same,FC Gadd45a 1449519_PM_at,1.75
same,FC Gclc (1424296_PM_at),1.70
same,FC Gdap10 1420342_PM_at,1.52
same,FC Gdf15 1418949_PM_at,5.39
same,FC Gm10374 1436357_PM_at,−1.52
same,FC Gm10804 1441759_PM_at,−1.67
same,FC Gsta3 (1423437_PM_at),2.01
same,FC Gt(ROSA)26Sor 1452239_PM_at,1.62
same,FC Hectd2 1433944_PM_at,1.67
same,FC Hinfp 1440255_PM_at,1.57
same,FC Hk2 1422612_PM_at,2.72
same,FC Hmox1 1448239_PM_at,6.27
same,FC Hnf1b 1421224_PM_a_at,−1.77
same,FC Hnf1b 1451687_PM_a_at,−1.82
same,FC Hsp90aa1 1426645_PM_at,1.64
same,FC Hsp90aa1 1437497_PM_a_at,1.55
same,FC Hspa1a 1452388_PM_at,2.35
same,FC Hspa1b 1427126_PM_at,3.65
same,FC Hspa1b 1427127_PM_x_at,3.37
same,FC Hspa1b 1452318_PM_a_at,1.70
same,FC Hspa4l 1439093_PM_at,1.67
same,FC Hspa8 /// LOC624853 1431182_PM_at,2.63
same,FC Hsph1 1423566_PM_a_at,2.40
same,FC Igf1r 1446303_PM_at,−1.66
same,FC Jmjd6 1420056_PM_s_at,1.52
same,FC Jmjd6 1420057_PM_at,1.54
same,FC Jun 1448694_PM_at,1.50
